The record followed here is PMC9479156 (Frontiers in Pharmacology, 2022).

Read-outs that look alike come from different tables or passages of the source.

Test [1] has as its system asexual blood stage Pf NF54. The test can be described thus: Fixed-ratio isobole drug combination assay (SYBR Green I). In kind it is cell-based, Plasmodium falciparum. The procedure: The in vitro interactions of celastrol with artemisone and MB was determined using a fixed-ratio isobole analysis on Pf NF54 asexual parasites (SYBR Green I-based fluorescence). […] The fractional inhibitory concentration (FIC) for each drug in the combination was calculated as follows:
FIC = IC50 of drug A in combination with drug B/IC50 of drug A
The paired FIC values for the drugs in each combination were linearly plotted to provide the isobologram. The ΣFIC of FIC of drug A in combination with FIC of drug B was determined by calculating the mean FIC value, to obtain the representative FIC value for the drug combination. Data obtained were analysed in Excel, and sigmoidal dose-response curves and isobolograms were plotted using GraphPad 6.0. Experiments were performed in triplicate, and repeated 3 times.
As previously recorded for each of artemiside and artemisone in combination with MB ([Coertzen et al., 2018]), drug-drug interactions were monitored through evaluation of fractional inhibitory concentration (FIC) as determined by isobolograms. A mean ΣFIC<1.0 represents a synergistic interaction, >1.3 an antagonistic interaction and ΣFIC = 1 an indifferent or additive interaction. Isobologram analysis of the combinations of each of artemisone and MB in combination with celastrol was performed against the asexual stages of Pf NF54 using the SYBR Green I based assay. In Table 3 are shown the calculated FIC values for the independent combinations at each ratio as well as the ∑FIC values for each combination. In Figure 5 are presented the independent isoboles for each drug combination.

Test [2] concerns asexual blood stage P. falciparum NF54 (drug sensitive). The test can be described thus: SYBR Green I proliferation assay, asexual blood stage Pf NF54. It counts as cell-based. Particulars: Plasmodium falciparum, read-out: IC50 NF54. The procedure:
In vitro cultivation of asexual and gametocyte P. falciparum parasites: P. falciparum asexual blood stage parasites were cultivated in human erythrocytes in RPMI-1640 media supplemented with AlbuMax II under sterile conditions and in a hypoxic environment (90% N2, 5% CO2, and 5% O2) at 37°C as described previously ([Coertzen et al., 2018]; [Wong et al., 2019]). Gametocytes were produced from asexual blood stage parasites in a stage-specific manner through induction of cellular stress as described previously ([Reader et al., 2015]; [Coertzen et al., 2018]; [Wong et al., 2019]; [Reader et al., 2022]).
DHA, artesunate, artemether, chloroquine (CQ), and methylene blue (MB) were used as reference drugs. All assay conditions are as previously described ([Coertzen et al., 2018]; [Wong et al., 2019]). […] Dose-responses were determined using a 2-fold serial drug dilution on in vitro 95% ring-stage intraerythrocytic Pf parasites (1% parasitemia, 1% hematocrit) at 37°C under 90% N2, 5% CO2, and 5% O2 atmospheric conditions, detecting SYBR green I fluorescence as a marker for parasite proliferation following a 96 h drug treatment ([Smilkstein et al., 2004]; [Verlinden et al., 2011]). Activity against the Pf drug-sensitive NF54 strain and the multi drug-resistant K1 (resistant to CQ, quinine, pyrimethamine, and cycloguanil), and W2 (resistant to CQ, quinine, pyrimethamine, and cycloguanil) strains was evaluated. […] Data analysis was performed using GraphPad Prism (version 6) software, intra-assay variability was monitored with Z-factors, and acceptable inter-assay reproducibility was determined from the percent coefficient of variation (CV) ([Reader et al., 2015]). […]
Activity was determined using the SYBR Green I based fluorescence assay on asexual blood stages of the NF54 (drug sensitive), K1 and W2 (drug resistant) strains of P. falciparum. […] Also included in Table 1 for direct comparison of activities against celastrol are data for the internal reference standards MB and artemisone recorded at the same time as for celastrol. […]

Test [3] concerns HepG2 liver hepatocellular carcinoma. As to the kind of experiment: MTT cytotoxicity assay HepG2. In kind it is cell-based, human. Particulars: for IC50: Homo sapiens, read-out: IC50 HepG2; for SI, selectivity index IC50 normal cell line/IC50 tumour cell line: LO2/HepG2. The procedure:
(§1) Proliferative and non-proliferative mammalian cell lines: human liver and lung cancer cell lines HepG2 and A549, and immortalized normal liver LO2 and lung BEAS-2B cells were purchased from ATCC (Manassas, VA, United States). Cells were cultured in RPMI-1640 medium supplemented with 10% fetal bovine serum and antibiotics penicillin (50 U/mL) and streptomycin (50 μg/ml; Invitrogen, United Kingdom). All cells were incubated at 37°C in a 5% humidified CO2 incubator.
(§2) All test compounds were dissolved in DMSO at a final concentration of 50 mM and stored at −20°C before use. Cytotoxicity was assessed with A549, HepG2, BEAS-2B and LO2 cells. The MTT assay with 3-(4,5-dimethylthiazole-2yl)-2,5-diphenyltetrazolium bromide (5 mg/ml) was performed as previously described ([Ng et al., 2022]). Briefly, 4 × 10^3 cells per well were seeded in 96-well plates before drug treatment. After overnight cell culture, the cells were exposed to different concentrations of selected compounds (0.19–100 μM) for 72 h. Cells without drug treatment were used as control. Next, 10 μl of the MTT solution was added to each well and incubated at 37°C for another 4 h. Solubilization buffer (100 μl) was then added (10 mM HCl in a solution of 10% of SDS) and incubated overnight. The absorbance A at 570 nm was measured on the next day. The percentage of cell viability was calculated using the following formula: Cell viability (%) = Atreated/Acontrol × 100. Dose response curves for all assays are given in the Supplementary Figures S3–S6.
(§3) Cytotoxicity was assessed for each of artemisinin, DHA and artemether, and the amino-artemisinins artemiside and artemisone, and celastrol against A549 human lung carcinoma, BEAS-2B non-tumorigenic human bronchial epithelium, HepG2 liver hepatocellular carcinoma and LO2 human normal hepatocytes using the MTT assay ([Ng et al., 2022]). Data are presented in Table 4, and dose response curves are given in the Supplementary Figures S3–S6.
On the technique in general: Tetrazolium dyes change colour on reduction, which living cells bring about.

Test [4] deals with A549 human lung carcinoma. The test can be described thus: MTT cytotoxicity assay A549. In kind it is cell-based. Particulars: for SI, selectivity index IC50 normal cell line/IC50 tumour cell line: BEAS-2B/A549; for IC50: Homo sapiens, read-out: IC50 A549. The procedure: as §1, §2, §3
[5] abbreviates: artemisone:celastrol drug ratio 20:80, Pf NF54.
Where [6] appears, read: artemisone:celastrol drug ratio 40:60, Pf NF54.
Setting [7] is: artemisone:celastrol drug ratio 60:40, Pf NF54.
Where [8] appears, read: artemisone:celastrol drug ratio 80:20, Pf NF54.

As to `C[C@H]1[C@H](N2CCS(=O)(=O)CC2)O[C@@H]2O[C@@]3(C)CC[C@H]4[C@H](C)CC[C@@H]1[C@@]24OO3` [Artemisone, artemisone], the FIC amounted to 0.12 in test [1] (setting [5]), 0.24 in test [1] (setting [6]), 0.39 in test [1] (setting [7]) and 0.69 in test [1] (setting [8]). In addition, the IC50 (usually the concentration needed to halve the response being measured) in test [2] (NF54, asexual blood stage, SYBR Green I, 96 h, mean ± SEM, this study) is 2.32 ± 0.76 nM; in test [3] (HepG2, MTT, 72 h, ± SD), 580 ± 200 nM; in test [4] (A549, MTT, 72 h, ± SD), greater than 100000 nM. Further, the “SI, selectivity index IC50 normal cell line/IC50 tumour cell line” value in test [3] was greater than 171; in test [3] (listed as artemisone), greater than 170; in test [4], less than 0.7.

On to `CC1=C(O)C(=O)C=C2C1=CC=C1[C@@]2(C)CC[C@@]2(C)[C@@H]3C[C@](C)(C(=O)O)CC[C@]3(C)CC[C@]12C` [Celastrol, celastrol], for which the FIC amounted to 1.02 in test [1] (MB:celastrol drug ratio 40:60, Pf NF54); 0.72 in test [1] (MB:celastrol drug ratio 60:40, Pf NF54); 0.41 in test [1] (MB:celastrol drug ratio 80:20, Pf NF54); 0.93 in test [1] (setting [5]); 0.76 in test [1] (setting [6]); 0.60 in test [1] (setting [7]). Also, the FIC in test [1] (setting [8]) amounted to 0.50. The half-inhibitory concentration (IC50) in test [2] (NF54, 96 h) stood at 820 ± 190 nM; in test [3] (HepG2, 72 h), 940 ± 100 nM; in test [4] (A549, 72 h) it was 2830 ± 120 nM. The “SI, selectivity index IC50 normal cell line/IC50 tumour cell line” value was 0.83 in test [3], less than 1 in test [3] (listed as celastrol) and 0.16 in test [4].
